Measured values reported in patent publication US11485740B2, “Inhibitors of TRPC6” (Boehringer Ingelheim International GmbH, priority 2018, dated 2022).

These compounds were tested against T1, human TRPC6 (Homo sapiens, UniProt Q9Y210) (assay: High throughput screening assay: Fluo4/AM calcium fluorescence in HEK293/TREx cells expressing human TRPC6, agonist GSK1702934A (single concentration 10 μM and IC50 curves)). Conditions: antagonist effect against human TRPC6, 7 concentrations 20 μM to 0.027 μM, triplicate.
T1 construct: expressed in transfected cells
T1 sequence (Q9Y210 1-931): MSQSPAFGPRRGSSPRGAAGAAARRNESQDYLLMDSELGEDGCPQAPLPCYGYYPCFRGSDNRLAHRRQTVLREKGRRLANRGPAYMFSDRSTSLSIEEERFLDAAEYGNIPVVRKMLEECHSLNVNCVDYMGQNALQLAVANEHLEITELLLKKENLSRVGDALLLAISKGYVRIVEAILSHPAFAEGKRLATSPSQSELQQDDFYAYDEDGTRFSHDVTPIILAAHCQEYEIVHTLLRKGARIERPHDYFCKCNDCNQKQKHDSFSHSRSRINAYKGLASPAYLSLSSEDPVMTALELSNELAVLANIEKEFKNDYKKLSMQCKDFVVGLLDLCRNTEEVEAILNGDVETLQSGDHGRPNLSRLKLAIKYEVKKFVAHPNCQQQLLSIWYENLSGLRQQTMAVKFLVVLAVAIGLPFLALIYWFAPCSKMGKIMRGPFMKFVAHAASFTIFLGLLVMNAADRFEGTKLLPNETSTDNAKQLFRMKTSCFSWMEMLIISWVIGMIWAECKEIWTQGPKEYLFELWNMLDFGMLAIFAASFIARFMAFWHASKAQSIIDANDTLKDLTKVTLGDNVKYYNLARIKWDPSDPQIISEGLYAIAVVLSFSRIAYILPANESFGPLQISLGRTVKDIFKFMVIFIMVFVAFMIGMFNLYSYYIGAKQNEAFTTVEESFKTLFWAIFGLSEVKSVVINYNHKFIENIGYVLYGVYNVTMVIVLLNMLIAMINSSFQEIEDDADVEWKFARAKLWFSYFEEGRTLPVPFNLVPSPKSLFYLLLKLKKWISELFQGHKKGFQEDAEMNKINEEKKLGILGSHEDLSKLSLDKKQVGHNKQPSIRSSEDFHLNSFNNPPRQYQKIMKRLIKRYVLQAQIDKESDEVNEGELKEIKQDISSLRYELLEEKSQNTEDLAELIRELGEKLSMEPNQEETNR
Type: cell-based
Source text: High Throughput Screening Assay
This screening assay measures human TRPC6 (transient receptor potential cation channel, subfamily C, member 6) ion channel activation via addition either of the commercially available DAG ligand analogue OAG (1-oleoyl-2-acetyl-sn-glycerol) or of the TRPC6 agonist 1-[1-(4,5,6,7,8-pentahydrocyclohepta[2,1-d]thiophen-2-ylcarbonyl)-4-piperidyl]-3-hydrobenzimidazol-2-one (GSK1702934A). The assay utilizes a fluorescent calcium sensor 4-(6-Acetoxymethoxy-2,7-difluoro-3-oxo-9-xanthenyl)-4′-methyl-2,2′-(ethylenedioxy)dianiline-N,N,N′,N′-tetraacetic acid tetrakis(acetoxymethyl) ester (Fluo4/AM) dye from Molecular Devices. Changes (increases) in intracellular calcium concentration as measured by the fluorescent signal increase provide a measurement of channel activity.
The commercially available HEK293/TREx line (Invitrogen) was stably transfected with a human TRPC6 construct and screened by conventional calcium imaging to find clones with human TRPC6 expression following stimulation with 1 μg/ml tetracycline. These cells were maintained in the growth medium recommended by the manufacturer supplemented with 100 μg/ml hygromycin to promote retention of the human TRPC6 construct. After growing to near confluency, cells were plated at a density of ^˜35,000 cells/well in 384 well CellBind plates (Corning) in the presence of 1 μg/ml tetracycline, and allowed to grow for 20-30 hrs. A nearly confluent monolayer resulted. Growth media was removed from the wells and cells were then loaded with […] Fluo4/AM diluted in Ringer's Solution (6.5 g NaCl, 0.42 g KCl, 0.25 g CaCl2) and 0.2 g of sodium bicarbonate; pH 7.4) supplemented with 1% Pluronic F-127 to a final concentration of 0.5 μM and incubated for 60 min, at room temperature. Dye solution was then removed from the cells by inverting plates with a sharp flick, and replaced with 25 μl Ringer's. Following ^˜0.5 hour for recovery from loading, cells were assayed using the Hamamatsu FDSS 6000 system, which permitted illumination at 485 nm. Frames were acquired at a rate of 0.2 Hz. During the assay, the plates were continuously vortexed, with pipette mixing of wells following addition of each reagent. For the screening assay, 26 μl of a diluted compound stock (at 50 μM) was added to each well for 2 minutes following the collection of a short (4 frame) baseline. 13 μl of agonist solution consisting of 125 nM GSK1702934A diluted in high-Ca2+Ringer solution (containing 90 mM Ca2+) was then added to each well, achieving a final concentration of 20 mM Ca2+ and 10 μM test compound. Data was collected for ^˜3 minutes following addition of high Ca2+Ringer. The fluorescent intensity observed at a particular timepoint for each well was divided by the initial fluorescent intensity for that well and the overall response was determined by averaging the resulting fluorescent ratio of the last 4 frames acquired during the experiment excepting the final frame. Negative and Positive controls were included on each plate. Negative controls wells consisted of HEK293/TREx TRPC6 cells exposed to assay buffer and agonist solution, but no test compound. Positive control consisted of wells consisted of HEK293/TREx TRPC6 cells exposed to 25 μM 3-[(2-chlorophenoxy)methyl]phenyl piperidyl ketone (Chembridge) diluted in Ringer's solution and agonist solution. These controls defined zero percent and 100 percent block respectively, and intensity of each well was normalized to these values.
Compounds were tested in triplicate at all concentrations. Standard software was used to fit IC50 curves.

Row | IC50 [nM] | Compound
1 | 2000 | CCc1ccc(-c2ccc(C(=O)N3CCC(c4ccc(N)nn4)CC3)cc2)cc1 [Compound 2, [4-(6-Amino-pyridazin-3-yl)-piperidin-1-yl]-(4′-ethyl-biphenyl-4-yl)-methanone]
2 | 69 | COc1cc(C(=O)N2CCC(c3ccc(N)nn3)CC2)ncc1-c1ccc(OC2CCCC2)cc1 [Compound 23, [4-(6-Amino-pyridazin-3-yl)-piperidin-1-yl]-[5-(4-cyclopentyloxy-phenyl)-4-methoxy-pyridin-2-yl]-methanone]
3 | 3600 | COc1cc(C(=O)N2CCC(c3ccc(N)nn3)CC2)ncc1-c1cnc(OC(C)C)nc1 [Compound 53, [4-(6-Amino-pyridazin-3-yl)-piperidin-1-yl]-[5-(2-isopropoxy-pyrimidin-5-yl)-4-methoxy-pyridin-2-yl]-methanone]
4 | 840 | COc1cc(C(=O)N2CCN(c3cnc(N)cc3OC)C[C@H]2CO)ncc1-c1ccc(F)cc1 [Compound 102, [(S)-4-(6-Amino-4-methoxy-pyridin-3-yl)-2-hydroxymethyl-piperazin-1-yl]-[5-(4-fluoro-phenyl)-4-methoxy-pyridin-2-yl]-methanone]
5 | 2000 | Nc1ccc(C2CCN(C(=O)c3ccc4c(c3)oc3ccccc34)CC2)nn1 [Compound 11, [4-(6-Amino-pyridazin-3-yl)-piperidin-1-yl]-dibenzofuran-3-yl-methanone]
6 | 910 | COc1cc(C(=O)N2CCC(c3ccc(N)nn3)CC2)ccc1-c1ccc(OC(F)(F)F)cc1 [Compound 56, [4-(6-Amino-pyridazin-3-yl)-piperidin-1-yl]-(2-methoxy-4′-trifluoromethoxy-biphenyl-4-yl)-methanone]
7 | 3800 | Nc1ccc(C2CCN(C(=O)c3ccc(-c4ccccc4)cc3)CC2)nn1 [Compound 1, [4-(6-Amino-pyridazin-3-yl)-piperidin-1-yl]-biphenyl-4-yl-methanone]
8 | 190 | COc1ccc(-c2cnc(C(=O)N3CCC(c4ccc(N)nn4)CC3)cc2OC)cc1 [Compound 28, [4-(6-Amino-pyridazin-3-yl)-piperidin-1-yl]-[4-methoxy-5-(4-methoxy-phenyl)-pyridin-2-yl]-methanone]
9 | 380 | COc1cc(C(=O)N2CCC(c3ccc(N)nn3)CC2)ccc1-c1ccc(OCC2CC2(F)F)nc1 (centres unmarked) [Compound 76, [4-(6-Amino-pyridazin-3-yl)-piperidin-1-yl]{4-[6-(2,2-difluoro-cyclopropylmethoxy)-pyridin-3-yl]-3-methoxy-phenyl}-methanone]
10 | 460 | COc1cc(C(=O)N2CCC(c3ccc(N)nn3)CC2)ccc1-c1ccc(O[C@@H](C)C2CC2)nc1 [Compound 78, [4-(6-Amino-pyridazin-3-yl)-piperidin-1-yl]-{4-[6-((S)-1-cyclopropyl-ethoxy)-pyridin-3-yl]-3-methoxy-phenyl}-methanone]
11 | 69 | COc1cc(C(=O)N2CCC(c3ccc(N)nc3)CC2)ncc1-c1ccc(C(F)(F)F)nc1 [Compound 97, (6-Amino-3′,4′,5′,6′-tetrahydro-2′H-[3,4′]bipyridinyl-1′-yl)-(4-methoxy-6′-trifluoromethyl-[3,3′]bipyridinyl-6-yl)-methanone]
12 | 81 | COc1cc(C(=O)N2CCC(c3ccc(N)nn3)CC2)ccc1-c1ccc(OCC(F)(F)F)cc1 [Compound 58, [4-(6-Amino-pyridazin-3-yl)-piperidin-l-yl]-[2-methoxy-4′-(2,2,2-trifluoro-ethoxy)-biphenyl-4-yl]-methanone]
13 | 36 | COc1cc(C(=O)N2CCC(c3ccc(N)nn3)CC2)ncc1-c1ccc(C(F)(F)F)cc1 [Compound 27, 6-(1-{4-Methoxy-5-[4-(trifluoromethyl)phenyl]pyridine-2-carbonyl}piperidin-4-yl)pyridazin-3-amine]
14 | 190 | COc1cc(C(=O)N2CCC(c3ccc(N)nn3)CC2)ncc1-c1ccc(OCC2CC2)nc1 [Compound 50, [4-(6-Amino-pyridazin-3-yl)-piperidin-1-yl]-(6′-cyclopropylmethoxy-4-methoxy-[3,3′]bipyridinyl-6-yl)-methanone]
15 | 110 | COc1cc(C(=O)N2CCC(c3ccc(N)nn3)CC2)ncc1-c1ccc(OCC(F)(F)F)cc1 [Compound 29, [4-(6-Amino-pyridazin-3-yl)-piperidin-1-yl]-{4-methoxy-5-[4-(2,2,2-trifluoro-ethoxy)-phenyl]-pyridin-2-yl}-methanone]
16 | 5400 | COc1cccc(-c2ccc(C(=O)N3CCC(c4ccc(N)nn4)CC3)cc2)c1 [Compound 9, [4-(6-Amino-pyridazin-3-yl)-piperidin-1-yl]-(3′-methoxy-biphenyl-4-yl)-methanone]
17 | 1300 | COc1nc(C(=O)N2CCC(c3ccc(N)nn3)CC2)ccc1-c1ccc(C(F)(F)F)cc1 [Compound 64, [4-(6-Amino-pyridazin-3-yl)-piperidin-1-yl]-[6-methoxy-5-(4-trifluoromethyl-phenyl)-pyridin-2-yl]-methanone]
18 | 27 | COc1cc(C(=O)N2CCN(c3cnc(N)cc3OC)CC2)ncc1-c1ccc(F)cc1 [Compound 104, [4-(6-Amino-4-methoxy-pyridin-3-yl)-piperazin-1-yl]-[5-(4-fluoro-phenyl)-4-methoxy-pyridin-2-yl]-methanone]
19 | 1900 | Nc1ccc(C2CCN(C(=O)c3ccc(-c4ccc(Cl)cc4)cc3)CC2)nn1 [Compound 4, [4-(6-Amino-pyridazin-3-yl)-piperidin-1-yl]-(4′-chloro-biphenyl-4-yl)-methanone]
20 | 180 | COc1cc(C(=O)N2CCC(c3ccc(N)nn3)CC2)ncc1-c1ccc(C(F)F)cc1 [Compound 38, [4-(6-Amino-pyridazin-3-yl)-piperidin-1-yl]-[5-(4-difluoromethyl-phenyl)-4-methoxy-pyridin-2-yl]-methanone]
21 | 3300 | COc1cc(-c2cnc(C(=O)N3CCC(c4ccc(N)nn4)CC3)cc2OC)ccc1F [Compound 14, [4-(6-Amino-pyridazin-3-yl)-piperidin-1-yl]-[5-(4-fluoro-3-methoxy-phenyl)-4-methoxy-pyridin-2-yl]-methanone]
22 | 320 | CCOc1ccc(-c2cnc(C(=O)N3CCC(c4ccc(N)nn4)CC3)cc2OC)cc1 [Compound 37, [4-(6-Amino-pyridazin-3-yl)-piperidin-1-yl]-[5-(4-ethoxy-phenyl)-4-methoxy-pyridin-2-yl]-methanone]

Row | Compound | IC50 [nM]
23 | CC[C@H](C)Oc1ccc(-c2ccc(C(=O)N3CCC(c4ccc(N)nn4)CC3)cc2OC)cn1 [Compound 75, [4-(6-Amino-pyridazin-3-yl)-piperidin-1-yl]-{4-[6-((S)-sec-butoxy)-pyridin-3-yl]-3-methoxy-phenyl}-methanone] | 91
